US20080220416A1, “Compositions for Inhibiting Cell Growth and Inducing Apoptosis in Cancer Cells and Methods of Use Thereof” (THE BOARD OF TRUSTEES OF THE UNIVERSITY OF ILLINOI, priority 2004, published 2008)
“Also recorded” adds a separate entry of the source. Square brackets hold non-standard residues; d marks the D form. Peptide text beside a SMILES is read from it. * marks the point of attachment. Nle = CCCC[C@H](N)C(=O)O; Cbz = O=C(OCc1ccccc1)*

Tests used:
[1] = tested on: Human Mammary Epithelial Cells (HMEC); assay: Proliferation of normal breast cells (HMEC) after siRNA; format: cell-based; details: siRNA transfection
Experimental: An invasive, estrogen-independent breast cancer cell line that spontaneously expresses high levels of Notch-1 and -4, MDA-MB231, and normal human breast cells were used to investigate whether inhibition of Notch activation or expression affects the biological behavior of breast cancer cells. […] Sequence specificity was determined by BLAST searches which determined the uniqueness of the sequences. […] Transfected cells were identified by Streptavidin-horseradish peroxidase staining (Vectastain) and counted. […]
Cytotoxicity and growth of transfected cells were estimated by a standard assay used for cancer drug screening, through the total amount of TCA-precipitated cell proteins after drug treatment (Likhitwitayawuid, K et al., 1993, J Nat Prod 56:30-38): 200 μl of cell suspension (10^5 cells/ml) were added to each well in a 96-well plate. […] Plates were shaken for 5-10 minutes and OD at 490 nm (OD490) was recorded via ELISA reader. […] After removal of the non-invading cells from the interior of the inserts, stained invading cells were lysed in 10% acetic acid and OD595 was determined.

Notch-1 = Notch-1 cleavage in CaSki cells (Western blot N^TM, N^IC); format: cell-based, human; details: 0-5 μM, 24 h
Experimental: The CaSki human cervical cancer cells were incubated for 24 h with various concentrations (0-5 μM) of the dual inhibitor z-Leu-Leu-Nle-CHO (Calbiochem) (FIG. 13A). The cells were then collected and assayed for Notch-1 and Notch-4 expression by Western blotting. Immunoblotting was performed using antibodies to the transmembrane portion of Notch-1 (N^TM) (Santa Cruz Biotechnology (Santa Cruz, Calif.)), or the intracellular portion of Notch-1 (N^IC) (Abcam, Inc. (Cambridge, Mass.)). Secondary anti-goat, anti-rnouse, anti-rabbit and anti-rat antibodies (IgG-HRP) were purchased from Vector Laboratories (Burlingame, Calif.), Santa Cruz Biotechnology and Amersham Biosciences. For Western blot analysis, equal amounts of protein extracted from each sample (20 μg) were loaded into pre-cast 7% NuPAGE Tris-acetate gels or 4-12% NuPAGE Bis-tris gels (Invitrogen). Proteins were separated by SDS-PAGE and transferred to polyvinylidene difluoride membranes (Bio-Rad, Hercules, Calif.) using Invitrogen's buffering system. The membranes were incubated with the indicated primary antibodies, washed, and visualized by incubation with horseradish peroxidase-conjugated secondary antibodies and chemiluminescent reagents (Roche Diagnostics Corporation, Indianapolis, Ind.).

melanoma cell lines = assay: Apoptosis of melanoma cell lines treated with z-Leu-Leu-Nle-CHO (Annexin V FITC / propidium iodide flow cytometry); format: cell-based, human; details: each of nine melanoma cell lines; 10 μM for 24 h
Experimental: The effect of z-Leu-Leu-Nle-CHO on apoptosis was tested in vitro using normal human melanocytes and several melanoma cell cultures. Prior to testing, cutaneous (C8161, SK-MeI-28, SK-MeI-100, SK-MeI-5, C81-61), uveal or ocular (MUM2B, MUM2C, OCM-1A), and pulmonary metastases (RJ002L) melanoma cell lines were maintained in RPMI supplemented with 10% FBS. Normal human melanocytes were isolated from neonatal foreskins as previously described (Qin J et al., 2004, Mol Cancer Ther 3:895-902) and cultured with medium 154 containing growth supplements (Cascade Biologics, Portland, Oreg.).
To assess the effect of z-Leu-Leu-Nle-CHO on the cell lines, the cells were grown in suitable culture media. Highly proliferating cells (i.e., cells that had reached approximately 30% confluency) were exposed to z-Leu-Leu-Nle-CHO as described below. […]
Following treatment with z-Leu-Leu-Nle-CHO, the melanoma and melanocyte cell cultures were assayed for apoptotic cells using the APO TARGET Annexin V FITC staining kit (Biosource, Camarillo, Calif.) according to the manufacturer's instructions followed by flow cytometric analysis using FACScaliber (Becton Dickinson, Palo Alto, Calif.) as described in Qin, J. et al., 2001, Nat Med 7:385-386. In some cases, cell cycle and apoptosis analysis was measured using propidium iodide staining and flow cytometry as described. […]

PC-3 prostate cells = assay: z-Leu-Leu-Nle-CHO on NOXA and apoptosis in PC-3 prostate cells; format: cell-based; details: 10 μM
NOXA = assay: Western blot of pro-apoptotic proteins in normal melanocytes treated with z-Leu-Leu-Nle-CHO; format: cell-based, human; details: data not shown

| Molecule | proliferation [1] | cleaved and transmembrane Notch-1 (Notch-1) | induction of apoptosis (melanoma cell lines) | NOXA expression (PC-3 prostate cells; PC-3, p53 null) | dead cells (PC-3 prostate cells; PC-3, after 24 hrs, data not shown) [%] | induction of pro-apoptotic proteins (Bak, Bim, NOXA) (NOXA) |
| --- | --- | --- | --- | --- | --- | --- |
| 5′-AAGTGTCTGAGGCCAGCAAGA-3′ [Notch-1 siRNA] | inhibits proliferation of normal breast cells |  |  |  |  |  |
| CCCC[C@@H](C=O)NC(=O)[C@H](CC(C)C)NC(=O)[C@H](CC(C)C)NC(=O)OCc1ccccc1 [z-Leu-Leu-Nle-CHO, N-benzyloxycarbonyl-leucyl-leucyl-norleucinal] (Cbz-Leu-Leu-[Nle]-aldehyde) |  | dose-dependent reduction in cleaved Notch-1 | triggered a dose-dependent increase in apoptosis | induced expression of NOXA | > 50 | did not induce any of the pro-apoptotic proteins; also recorded: did not induce NOXA in normal melanocytes |
